Laboratory results as given in US9211313B2, “Methods and compound to inhibit Ca2+ permeable cation conductance” (priority 2011, dated 2015).

Test system: deoxygenation-activated cation conductance in human SS red cells
Test: On-cell patch clamp of deoxygenation-activated cation conductance, symmetric Na methanesulfonate
Format: cell-based
Conditions: on-cell patch; for effect on deoxygenation-induced increase in cation conductance: 1 μM in the pipette / outside of membrane
Method: Blood cell preparation: Human SS and AA blood was obtained under IRB-approved protocols of Children's Hospital and Beth Israel Deaconess Medical Center. After buffy coat removal and 5 washes in standard human red cell wash solution containing (in mM) 150 choline Cl, 1 MgCl, and 10 Tris-MOPS, pH 7.4, red cells were resuspended in storage solution containing (in mM) 145 KCl, 15 NaCl, and 10 HEPES, pH 7.4, then kept at 4° C. until used. Human red cells allowed to settle on coverslips were mounted on an inverted microscope in a 200 μl open chamber (WPI, Sarasota, Fla.) and superfused 15 min at room temperature by bath solution containing (in mM) 150 Na methanesulfonate, 10 Na EDTA, and 10 Na HEPES, pH 7.4.
Mouse red cells allowed to settle on coverslips were superfused 15 min with bath solution containing (in mM) either 150 mM Na methanesulfonate, 10 Na EDTA, and 10 Na HEPES, pH 7.4; or 140 NaCl, 4 KCl, 1CaCl2, 1 MgCl2, 10 Na HEPES, pH 7.4. Deoxygenation was achieved by switching superfusate to the same solution gassed ≧30 min prior to the experiment with 100% N2, and by flushing of the perfusion chamber with N2 during the deoxygenation period. The resulting bath pO2 was 18 mm Hg as measured by oxygen electrode (WPI). In the experiments of FIG. 1, deoxygenated cells were subsequently re-oxygenated by exposure to the same superfusate equilibrated with room air.
Washed human or mouse red cells in solution containing (in mM) 140 NaCl, 5 KCl, 1 CaCl2, 1 MgCl2, 10 Na HEPES, pH 7.4 were exposed for 1 hr on a rotary platform in a 37° C. incubator to 25 ppm carbon monoxide (CO) in 5% CO2. CO-exposed cells were then subjected to patch clamp or to calcium imaging experiments within 60 min after return to room air, using the solutions indicated.
On-cell patch clamp: Borosilicate pipettes (Corning 7052) pulled with a Narishige two stage puller or a Sutter P97 puller and fire-polished to resistances of 10-20 MΩ were front-filled and then backfilled. Symmetric bath and pipette solutions for studies of seal resistance stability during reversibility tests of the deoxygenation-activated conductance in SAD mouse red cells were (in mM) 140 NaCl, 4 KCl, 1 CaCl2, 1 MgCl2, 10 Na HEPES, pH 7.4. These conditions yielded tight seals in 13% of patch attempts on SAD cells. For study of deoxygenation-induced monovalent cation permeation in the absence of bath Ca^2+ and Mg^2+ recorded in SAD and Berkeley mouse cells and in human cells, symmetric bath and pipette solutions contained (in mM) 150 Na methanesulfonate, 10 Na EDTA, and 10 Na HEPES, pH 7.4. These conditions yielded tight seals in 16% of patch attempts on SAD mouse red cells, 26% of attempts on Berkeley mouse cells, and 30% of attempts on human SS cells. For study of Ca^2+ permeation in human SS cells, bath and pipette solutions contained (in mM) 100 CaCl2, 10 Na HEPES, pH 7.4. These conditions yielded tights seals on 44% of attempts. For all conditions tested in human red cells, 70% of tight seals were sustained through the solution change accompanying deoxygenation to allow recording of current activity.
On-cell patch currents were recorded with the Axopatch 1-D amplifier (Axon Instruments/Molecular Devices, Sunnyvale, Calif.). Holding potential was −Vp=−50 mV (expressed as the negative of the pipette potential (e.g., equivalent to the intracellular potential with respect to the pipette). To determine current-voltage relationships (I-V curves) in Fetchex or Clampex (PCLAMP, Axon Instruments), the realtime control window in gap-free mode was used to record current traces of 10-30 sec duration at holding potentials ranging from −100 to +100 mV, in 25 mV increments. The bath reference electrode was a silver chloride wire with a 3 M KCl agar bridge. Data was filtered at 500 Hz, digitized at 2 kHz by Clampex, and analyzed offline by Fetchan and Pstat or by Clampfit subroutines of PCLAMP. Holding potentials in on-cell patch experiments were expressed as −Vp, the negative of the pipette potential.

Grammastola spatulata mechanotoxin 4 (GCLEFWWKCNPNDDKCCRPKLKCSKLFKLCNFSF; listed as Grammastola spatulata) [GsMTx-4]
effect on deoxygenation-induced increase in cation conductance: prevented | effect on deoxygenation-induced increase in cation conductance (listed as GsMTx4): completely inhibit | NPo after deoxygenation (1 μM in the pipette, n=6): 0.003±0.003
